# Measurements from ChEMBL document CHEMBL5465560, “Selectivity Literature for EUbOPEN Chemogenomic Library” (2024).
# Experiments:
# [1] = biological target: Serine/threonine-protein kinase N2 (Homo sapiens, UniProt Q16513); conditions: at 10 µM
# [2] = biological target: BMP-2-inducible protein kinase (Homo sapiens) (UniProt Q9NSY1); experiment: Selectivity interaction (KinomeScan (DiscoverX)) EUB0001049a BMP2K; conditions: at 1 µM
# [3] = biological target: Serine/threonine-protein kinase B-raf (Homo sapiens) (UniProt P15056); experiment: Selectivity interaction (ActivX KiNativ screen (kinase selectivity in THP-1 cell lysates)) EUB0000639a BRAF; type: subcellular; conditions: lysate
# Chain of Serine/threonine-protein kinase B-raf (Homo sapiens) (P15056 whole entry): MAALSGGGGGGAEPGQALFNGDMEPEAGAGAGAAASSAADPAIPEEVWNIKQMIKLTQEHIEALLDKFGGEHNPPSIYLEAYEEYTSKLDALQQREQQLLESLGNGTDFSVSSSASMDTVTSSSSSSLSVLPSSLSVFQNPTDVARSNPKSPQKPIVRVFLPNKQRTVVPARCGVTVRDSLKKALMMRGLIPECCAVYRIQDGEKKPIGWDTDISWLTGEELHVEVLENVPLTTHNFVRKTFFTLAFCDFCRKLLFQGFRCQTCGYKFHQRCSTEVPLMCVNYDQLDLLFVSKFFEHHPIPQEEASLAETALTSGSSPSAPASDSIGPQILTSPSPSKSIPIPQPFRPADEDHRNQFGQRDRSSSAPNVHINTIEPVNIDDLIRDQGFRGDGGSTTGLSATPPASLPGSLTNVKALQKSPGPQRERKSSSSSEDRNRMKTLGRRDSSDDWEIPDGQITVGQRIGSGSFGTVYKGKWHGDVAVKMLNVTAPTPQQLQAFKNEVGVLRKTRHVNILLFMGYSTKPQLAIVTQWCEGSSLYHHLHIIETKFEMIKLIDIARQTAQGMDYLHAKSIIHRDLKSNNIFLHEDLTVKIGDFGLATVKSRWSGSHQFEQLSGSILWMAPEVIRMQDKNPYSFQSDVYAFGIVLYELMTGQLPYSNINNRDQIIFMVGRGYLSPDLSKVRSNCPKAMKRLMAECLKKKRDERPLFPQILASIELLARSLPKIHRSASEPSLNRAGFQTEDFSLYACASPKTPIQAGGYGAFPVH
# [4] = biological target: Mitogen-activated protein kinase 9 (Homo sapiens, UniProt P45984); experiment: Selectivity interaction (KinomeScan (DiscoverX)) EUB0000229b MAPK9; conditions: at 10 µM
# Chain of Mitogen-activated protein kinase 9 (P45984 whole entry, looked up): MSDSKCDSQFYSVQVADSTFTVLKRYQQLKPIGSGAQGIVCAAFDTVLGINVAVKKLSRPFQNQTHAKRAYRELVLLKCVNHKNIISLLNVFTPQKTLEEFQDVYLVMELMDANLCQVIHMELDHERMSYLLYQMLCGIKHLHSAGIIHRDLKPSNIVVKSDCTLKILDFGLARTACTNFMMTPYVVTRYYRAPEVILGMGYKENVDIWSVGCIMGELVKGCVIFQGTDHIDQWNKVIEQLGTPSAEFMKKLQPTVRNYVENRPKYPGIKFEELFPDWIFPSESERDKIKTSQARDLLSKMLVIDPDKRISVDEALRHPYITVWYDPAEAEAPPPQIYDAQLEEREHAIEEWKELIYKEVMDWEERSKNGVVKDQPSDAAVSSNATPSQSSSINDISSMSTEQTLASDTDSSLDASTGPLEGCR
# [5] = system: Tyrosine-protein kinase ABL1 (Homo sapiens), P00519 [T315I]; experiment: Selectivity interaction (KinomeScan (DiscoverX)) EUB0001079a ABL1; conditions: at 1 µM
# [6] = biological target: Ribosomal protein S6 kinase alpha-5 (Homo sapiens) (UniProt O75582); experiment: Selectivity interaction (KinomeScan (DiscoverX)) EUB0000045b RPS6KA5; conditions: at 1 µM
# Chain of Ribosomal protein S6 kinase alpha-5 (Homo sapiens) (O75582 whole entry, looked up): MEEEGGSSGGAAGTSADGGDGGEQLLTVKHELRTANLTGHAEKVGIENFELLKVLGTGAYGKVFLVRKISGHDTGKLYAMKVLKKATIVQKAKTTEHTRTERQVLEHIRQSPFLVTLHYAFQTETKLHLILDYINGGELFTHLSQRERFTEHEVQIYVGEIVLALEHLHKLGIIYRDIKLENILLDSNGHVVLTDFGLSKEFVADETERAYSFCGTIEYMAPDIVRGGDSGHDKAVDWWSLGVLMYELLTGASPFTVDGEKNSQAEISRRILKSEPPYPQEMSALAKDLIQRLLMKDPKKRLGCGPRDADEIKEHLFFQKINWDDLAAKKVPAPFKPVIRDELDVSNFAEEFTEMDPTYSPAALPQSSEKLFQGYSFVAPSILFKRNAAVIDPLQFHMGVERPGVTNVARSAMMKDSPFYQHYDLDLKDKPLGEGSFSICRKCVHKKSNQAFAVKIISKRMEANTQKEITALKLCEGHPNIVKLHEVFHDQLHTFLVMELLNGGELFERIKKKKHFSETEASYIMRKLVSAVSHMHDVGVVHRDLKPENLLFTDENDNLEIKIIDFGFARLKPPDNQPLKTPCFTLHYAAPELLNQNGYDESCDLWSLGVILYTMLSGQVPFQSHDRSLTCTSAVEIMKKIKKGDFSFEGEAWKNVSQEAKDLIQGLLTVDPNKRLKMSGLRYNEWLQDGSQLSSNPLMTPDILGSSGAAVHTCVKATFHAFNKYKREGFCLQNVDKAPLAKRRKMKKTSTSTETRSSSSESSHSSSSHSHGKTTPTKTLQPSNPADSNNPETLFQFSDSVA
# [7] = biological target: T1, Dual specificity mitogen-activated protein kinase kinase 3 (Homo sapiens) (UniProt P46734); experiment: Selectivity interaction (KinomeScan (DiscoverX)) EUB0000045b MAP2K3
# T1 sequence (whole entry): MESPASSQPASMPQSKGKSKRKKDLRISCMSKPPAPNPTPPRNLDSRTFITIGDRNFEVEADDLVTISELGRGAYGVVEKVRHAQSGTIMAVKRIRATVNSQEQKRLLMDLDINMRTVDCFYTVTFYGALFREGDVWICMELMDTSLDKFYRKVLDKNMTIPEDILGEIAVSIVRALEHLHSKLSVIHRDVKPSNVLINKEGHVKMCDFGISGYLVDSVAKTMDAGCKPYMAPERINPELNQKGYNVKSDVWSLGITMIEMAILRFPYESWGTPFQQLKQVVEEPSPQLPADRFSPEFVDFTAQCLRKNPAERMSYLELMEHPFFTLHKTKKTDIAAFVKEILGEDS
# [8] = biological target: T2, Serine/threonine-protein kinase STK11 (Homo sapiens) (UniProt Q15831); experiment: Selectivity interaction (KinomeScan (DiscoverX)) EUB0000655a STK11; conditions: at 10 µM
# T2 sequence (whole entry): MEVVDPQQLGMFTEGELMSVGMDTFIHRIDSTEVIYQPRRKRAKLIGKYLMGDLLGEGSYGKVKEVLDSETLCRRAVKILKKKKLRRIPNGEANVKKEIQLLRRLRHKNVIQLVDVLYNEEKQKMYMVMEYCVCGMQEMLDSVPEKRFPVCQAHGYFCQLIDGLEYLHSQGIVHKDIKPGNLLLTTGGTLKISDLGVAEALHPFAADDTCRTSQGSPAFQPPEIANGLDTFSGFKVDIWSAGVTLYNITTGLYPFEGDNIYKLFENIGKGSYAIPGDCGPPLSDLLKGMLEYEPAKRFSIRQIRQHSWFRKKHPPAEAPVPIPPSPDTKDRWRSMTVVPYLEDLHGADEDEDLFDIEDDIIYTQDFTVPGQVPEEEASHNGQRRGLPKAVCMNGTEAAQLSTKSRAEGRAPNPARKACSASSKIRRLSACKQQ
# [9] = biological target: T3, Ephrin type-B receptor 2 (Homo sapiens) (UniProt P29323); experiment: Selectivity interaction (KinomeScan (DiscoverX)) EUB0001619a EPHB2; conditions: at 1 µM
# T3 sequence (whole entry): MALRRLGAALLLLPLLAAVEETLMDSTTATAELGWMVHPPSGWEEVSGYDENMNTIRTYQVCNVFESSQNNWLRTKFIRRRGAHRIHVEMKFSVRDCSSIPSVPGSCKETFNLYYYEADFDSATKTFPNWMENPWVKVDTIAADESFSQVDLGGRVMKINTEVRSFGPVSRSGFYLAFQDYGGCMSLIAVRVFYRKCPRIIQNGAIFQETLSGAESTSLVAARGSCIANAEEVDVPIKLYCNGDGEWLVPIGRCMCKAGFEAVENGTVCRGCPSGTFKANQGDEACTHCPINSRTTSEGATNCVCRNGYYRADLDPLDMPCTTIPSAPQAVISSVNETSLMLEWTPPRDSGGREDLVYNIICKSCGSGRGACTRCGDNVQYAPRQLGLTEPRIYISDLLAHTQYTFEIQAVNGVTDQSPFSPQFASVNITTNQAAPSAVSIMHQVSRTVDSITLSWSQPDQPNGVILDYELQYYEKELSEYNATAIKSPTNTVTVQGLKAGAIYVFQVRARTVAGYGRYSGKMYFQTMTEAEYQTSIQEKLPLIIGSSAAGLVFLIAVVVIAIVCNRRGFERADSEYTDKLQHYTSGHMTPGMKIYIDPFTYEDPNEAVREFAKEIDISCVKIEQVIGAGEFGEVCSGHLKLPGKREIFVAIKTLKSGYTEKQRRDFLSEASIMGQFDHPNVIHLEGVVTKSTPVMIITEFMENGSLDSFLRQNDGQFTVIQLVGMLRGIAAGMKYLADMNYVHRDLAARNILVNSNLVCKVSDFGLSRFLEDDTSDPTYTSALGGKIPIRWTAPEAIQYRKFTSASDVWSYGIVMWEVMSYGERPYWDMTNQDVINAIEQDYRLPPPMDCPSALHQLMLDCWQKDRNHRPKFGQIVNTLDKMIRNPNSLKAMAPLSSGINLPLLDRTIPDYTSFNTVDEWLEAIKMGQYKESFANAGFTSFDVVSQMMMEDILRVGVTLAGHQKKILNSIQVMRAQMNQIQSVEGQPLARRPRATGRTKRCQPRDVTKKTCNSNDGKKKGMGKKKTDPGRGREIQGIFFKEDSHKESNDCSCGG
# [10] = biological target: T4, Activin receptor type-1B (Homo sapiens) (UniProt P36896); experiment: Selectivity interaction (KinomeScan (DiscoverX)) EUB0000607a ACVR1B; conditions: at 10 µM
# T4 sequence (whole entry): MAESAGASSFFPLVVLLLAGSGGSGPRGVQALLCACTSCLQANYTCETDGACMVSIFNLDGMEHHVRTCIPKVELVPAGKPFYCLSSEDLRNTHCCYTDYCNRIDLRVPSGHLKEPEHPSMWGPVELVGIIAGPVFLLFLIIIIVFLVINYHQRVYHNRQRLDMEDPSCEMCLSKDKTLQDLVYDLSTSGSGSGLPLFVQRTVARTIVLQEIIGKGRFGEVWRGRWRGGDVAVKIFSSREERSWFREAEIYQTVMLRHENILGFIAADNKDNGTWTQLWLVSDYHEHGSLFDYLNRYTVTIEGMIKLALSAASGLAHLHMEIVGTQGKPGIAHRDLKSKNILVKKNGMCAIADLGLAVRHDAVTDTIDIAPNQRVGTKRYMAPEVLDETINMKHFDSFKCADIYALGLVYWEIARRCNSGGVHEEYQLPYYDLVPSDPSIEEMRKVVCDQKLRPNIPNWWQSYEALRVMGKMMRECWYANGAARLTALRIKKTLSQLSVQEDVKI
# Chain of Serine/threonine-protein kinase N2 (Q16513 whole entry, looked up): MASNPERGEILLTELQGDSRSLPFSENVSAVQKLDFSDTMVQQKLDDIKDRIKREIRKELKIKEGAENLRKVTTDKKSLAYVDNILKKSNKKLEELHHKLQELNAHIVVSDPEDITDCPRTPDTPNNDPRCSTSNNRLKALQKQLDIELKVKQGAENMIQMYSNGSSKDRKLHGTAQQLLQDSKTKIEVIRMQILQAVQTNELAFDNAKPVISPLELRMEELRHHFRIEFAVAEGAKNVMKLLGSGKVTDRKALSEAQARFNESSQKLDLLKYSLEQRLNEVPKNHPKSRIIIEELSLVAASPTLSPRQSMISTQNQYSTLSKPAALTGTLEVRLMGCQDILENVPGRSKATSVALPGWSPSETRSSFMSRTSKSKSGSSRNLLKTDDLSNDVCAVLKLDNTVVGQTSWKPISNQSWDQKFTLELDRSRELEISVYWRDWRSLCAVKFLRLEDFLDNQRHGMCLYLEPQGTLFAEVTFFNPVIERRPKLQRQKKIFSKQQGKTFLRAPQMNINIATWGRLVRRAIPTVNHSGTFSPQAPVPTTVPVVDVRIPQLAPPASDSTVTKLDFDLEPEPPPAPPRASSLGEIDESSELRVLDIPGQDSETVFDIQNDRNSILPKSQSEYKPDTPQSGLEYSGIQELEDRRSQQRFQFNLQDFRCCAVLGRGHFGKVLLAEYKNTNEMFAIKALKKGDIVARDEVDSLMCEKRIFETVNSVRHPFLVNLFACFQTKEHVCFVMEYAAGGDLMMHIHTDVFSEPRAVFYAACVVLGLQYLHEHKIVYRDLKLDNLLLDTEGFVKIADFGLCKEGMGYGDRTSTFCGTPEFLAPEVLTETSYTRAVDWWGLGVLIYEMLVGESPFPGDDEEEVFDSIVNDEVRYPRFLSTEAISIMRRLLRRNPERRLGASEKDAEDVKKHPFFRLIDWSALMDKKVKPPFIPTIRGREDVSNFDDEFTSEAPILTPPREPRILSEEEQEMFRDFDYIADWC
# Chain of BMP-2-inducible protein kinase (Homo sapiens) (Q9NSY1 whole entry, looked up): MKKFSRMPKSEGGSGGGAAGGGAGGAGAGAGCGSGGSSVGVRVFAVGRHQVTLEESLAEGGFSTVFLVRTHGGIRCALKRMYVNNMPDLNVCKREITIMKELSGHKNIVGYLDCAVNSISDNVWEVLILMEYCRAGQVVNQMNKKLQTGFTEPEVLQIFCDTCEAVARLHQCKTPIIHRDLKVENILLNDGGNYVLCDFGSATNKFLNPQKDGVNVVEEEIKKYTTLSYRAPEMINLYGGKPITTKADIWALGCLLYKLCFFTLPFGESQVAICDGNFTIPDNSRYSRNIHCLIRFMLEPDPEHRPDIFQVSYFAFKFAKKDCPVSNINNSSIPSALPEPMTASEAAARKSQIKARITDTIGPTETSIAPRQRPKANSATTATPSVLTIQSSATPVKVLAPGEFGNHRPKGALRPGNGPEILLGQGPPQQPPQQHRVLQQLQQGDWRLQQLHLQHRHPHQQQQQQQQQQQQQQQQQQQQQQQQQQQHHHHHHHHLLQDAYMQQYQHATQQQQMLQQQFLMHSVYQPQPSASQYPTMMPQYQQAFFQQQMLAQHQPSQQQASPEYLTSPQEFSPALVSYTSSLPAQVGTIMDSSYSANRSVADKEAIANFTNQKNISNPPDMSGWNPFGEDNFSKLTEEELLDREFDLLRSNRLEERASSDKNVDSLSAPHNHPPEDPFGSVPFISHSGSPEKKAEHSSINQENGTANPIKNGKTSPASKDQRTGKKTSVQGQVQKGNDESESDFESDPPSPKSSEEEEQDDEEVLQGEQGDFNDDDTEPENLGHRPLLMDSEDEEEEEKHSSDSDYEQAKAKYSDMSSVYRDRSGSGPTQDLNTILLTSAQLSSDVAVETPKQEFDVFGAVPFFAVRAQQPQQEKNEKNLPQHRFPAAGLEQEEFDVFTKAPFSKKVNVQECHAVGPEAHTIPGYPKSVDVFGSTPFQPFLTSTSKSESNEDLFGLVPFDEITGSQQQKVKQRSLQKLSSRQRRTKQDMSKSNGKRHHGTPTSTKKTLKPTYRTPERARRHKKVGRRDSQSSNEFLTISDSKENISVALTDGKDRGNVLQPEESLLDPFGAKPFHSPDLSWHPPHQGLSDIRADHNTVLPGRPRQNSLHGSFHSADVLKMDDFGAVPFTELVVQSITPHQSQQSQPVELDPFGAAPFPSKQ
smiles,measurement,setting,value
Cc1cc([C@@H](C)Nc2ccccc2C(=O)O)c2nc(N3CCOCC3)cc(=O)n2c1 [AZD-6482],% of control,[1],98%
COc1cc(Nc2nc(C)cc(-c3cnn4nc(OC)ccc34)n2)cc(C(F)(F)F)c1,% of control,[2],86%
CC[C@@H]1[C@H](F)C(=O)N[C@@H]1COc1nccc2cc(C(N)=O)c(OC)cc12 [ZIMLOVISERTIB],% of inhibition,[3]; at 0.01 µM,7.3%
same,% of inhibition,[3]; at 0.04 µM,15.4%
same,% of inhibition,[3]; at 0.2 µM,-0.2%
same,% of inhibition,[3]; at 1 µM,-0.4%
same,% of inhibition,[3]; at 5 µM,-15.5%
COc1cc(N(C)c2ccnc3ccc(C(F)(F)F)cc23)cc(OC)c1OC,% binding,[4],80%
Nc1cnc(N2CCc3cc(S(=O)(=O)Nc4c(F)cc(Cl)cc4F)cc(N4CCCC4=O)c32)nc1 [TP-020n],% of control,[5],98%
C=CC(=O)Nc1cc(-n2c(=O)ccc3cnc4ccc(-c5ccc(NS(C)(=O)=O)cc5)cc4c32)ccc1C,% of control,[6],95%
same,% of control,[7]; at 1 µM,100%
same,% of control,[7]; at 10 µM,69%
CN(C)CCOc1ccc(-c2nc(-c3ccncc3)c(-c3ccc4c(c3)CC/C4=N\O)[nH]2)cc1,% of control,[8],88%
N#Cc1cccc(-c2c[nH]c3ncnc(N4CCOCC4)c23)c1,% of control,[9],92%
CNC(=O)Nc1ccc(-c2nc(N3CC4CCC(C3)O4)c3cnn(C4CCC5(CC4)OCCO5)c3n2)cc1,% of control,[10],100%
